Patent publication US7091185B2, “Periodic antimicrobial peptides” (Dow Global Technologies Inc., priority 2003, dated 2006)
Where two headings read alike, the source gives them in different places. Where no end group is shown, it is not given here.

Legend:
[1] = system: P. aeruginosa ATCC 15442; test: HMARQ biocidal kill activity; type: cell-based; settings: P. aeruginosa ATCC 15442 (gram−)
Procedure, shortened: (§1)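 Values are biocide ppm (μg/mL) needed for 3.5 log reduction relative to untreated controls after 15 min or 24 h exposure. Organisms were added to biocide-containing sample matrix (200–300 μL, mixed by vortex), then enumerated by most-probable-number 1:10 dilution series in TSB/resazurin.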

[2] = system: Staph. aureus ATCC 6538; test: HMARQ biocidal kill activity; type: cell-based; settings: Staph. aureus ATCC 6538 (gram+)
Procedure, shortened: as §1

[3] = system: HeLa cell line; test: HeLa MTS cellular reduction toxicity assay; type: cell-based; settings: for TX50: 24 h, MTS
Description: The RBC protocol was from Blondelle (2000) and is described generally as follows: The toxicity toward the HeLa cell line was determined using a MTS (3-(4-5-dimethylthiazol-2-yl)-5-(3carboxymethoxyphenyl)-2-(4-sulfophenyl)-2H-tetrazolium, sodium salt) cellular reduction assay. MTS (2 mg/mL) was prepared in Dulbecco PBS (pH 7.35), filtered, aliquoted and stored at minus 20° C. In 96 well flat bottomed plates, cell suspensions (250 μL of 6×10^4 cell/mL in each well) were incubated for 48 h at 37° C. (5% CO2 incubator). The peptides (50 μL) were then added to the cell monolayer (following aspiration of the media from each well and addition of 50 μL of Dulbecco's Modified Eagles Medium) at varying concentrations derived from serial 2-fold dilutions, and the plates incubated for 24 h at 37° C. (5% CO2 incubator). Proliferation was then determined by adding a solution of phenazine methosulfate (PMS: 0.92 mg/mL in DPBS) to MTS at a 1:20 ration just prior to the assay. Twenty microliters MTS-PMS solution were added to each well and the plates incubated for 1 h at 37° C. (5% CO2 incubator). The relative percent toxicity was determined by comparing the absorbance at 490 nm of each peptide to the absorbance of cells without peptide. The TX50 (concentration required for 50% toxicity) was calculated using a sigmoidal curve fitting software (Graphpad Prism).

[4] = system: Red blood cells (RBC); test: Red blood cell toxicity; type: cell-based
[5] = Red blood cell toxicity; type: cell-based; settings: red blood cells (RBC)
[6] = system: S. aureus (methicillin resistant) ATCC 33591
[7] = system: E. coli ATCC 2592
[8] = system: P. aeruginosa ATCC 10145
[9] = system: C. albicans 10231; type: cell-based
Procedure, shortened: (§2)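 Broth microdilution per NCCLS, adapted for fungi with Sabouraud Dextrose Broth; KFAK-repeat peptide multimers in two-fold dilutions from 1,000 to 1 μg/ml. Growth by OD620 after overnight incubation; IC50 by sigmoidal fit, in duplicate, repeated at least twice.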

[10] = system: Cr. Neoformans 32045; type: cell-based
Procedure, shortened: as §2

[11] = RBCs, concentration required for 50% toxicity, read-out: TX50
[12] = S. aureus (methicillin resistant) 33591, gram+
[13] = Table 3, P aeruginosa 10145, gram−

Row | Substance | ppm needed for 3.5 log kill at 15 min [1] | ppm needed for 3.5 log kill at 24 hr [1] | ppm needed for 3.5 log kill at 15 min [2] | ppm needed for 3.5 log kill at 24 hr [2] | % kill at 500 μg/ml [3] | TX50 [3] | % kill at 250 μg/ml [4] | IC50 ([6]; ATCC 33591) | MIC ([6]; ATCC 33591) | IC50 ([7]; ATCC 2592) | MIC ([7]; ATCC 2592) | IC50 ([8]; ATCC 10145) | MIC ([8]; ATCC 10145) | IC50 [9]; 10231 | MIC [9]; 10231 | IC50 [10] | MIC [10] | HC50 at 24 h [5, 11] | further results
1 | H-KKFAKKFAKKFAKKFAKKFAKKFA-OH [KKFA (6), KKFA KKFA KKFA KKFA KKFA KKFA] | >500 ppm | 8 ppm | >500 ppm | 63 ppm | 76.4% | >500 µg/mL | 2% | 136 µg/mL | >250 µg/mL | 7 µg/mL | 16 to 32 µg/mL | 33 µg/mL | 62 µg/mL | 107 µg/mL | 125 to 250 µg/mL | 12 µg/mL | 32 to 62 µg/mL | – | HC50 at 24 h [5]: > 500 µg/mL
2 | H-LKKLLKKLLKKLLKKLLKKL-OH [LKKL (5), LKKL LKKL LKKL LKKL LKKL] | >500 ppm | 8 ppm | >500 ppm | 125 ppm | −0.7% | 31 µg/mL | 100% | 69 µg/mL | >250 µg/mL | 49 µg/mL | 62 to 125 µg/mL | 27 µg/mL | 62 µg/mL | 211 µg/mL | >500 µg/mL | 55 µg/mL | 62 to 125 µg/mL | 9 µg/mL | –
3 | H-LKKLLKKLLKKLLKKLLKKLLKKLLKKL-OH [LKKL (7), LKKL LKKL LKKL LKKL LKKL LKKL LKKL] | 125 ppm | 8 ppm | 4 ppm | 125 ppm | −0.4% | 25 µg/mL | 100% | 252 µg/mL | >250 µg/mL | 41 µg/mL | 62 to 125 µg/mL | 96 µg/mL | 125 µg/mL | 199 µg/mL | 250 to 500 µg/mL | 85 µg/mL | 100 to 125 µg/mL | 9 µg/mL | –
4 | H-LKLKLKLKLKLKLKLK-OH [LK (8), LK LK LK LK LK LK LK LK] | 8 ppm | 16 ppm | 31 ppm | 4 ppm | 43.5% | 122 µg/mL | 13% | 56 µg/mL | 125 to 250 µg/mL | 65 µg/mL | >125 µg/mL | 125 µg/mL | 130 µg/mL | 162 µg/mL | 250 to 500 µg/mL | 9.7 µg/mL | 32 to 63 µg/mL | > 500 µg/mL | –
5 | H-LKLKLKLKLKLKLKLKLKLKLK-OH [LK (11), LK LK LK LK LK LK LK LK LK LK LK] | 16 ppm | 8 ppm | 16 or less ppm | 4 ppm | 43.8% | 202 µg/mL | 24% | 111 µg/mL | >250 µg/mL | 50 µg/mL | >125 µg/mL | 51 µg/mL | 62 µg/mL | 185 µg/mL | 250 to 500 µg/mL | 26 µg/mL | 32 to 62 µg/mL | > 500 µg/mL | –
6 | H-RFARRFARRFARRFARRFARRFAR-OH [RFAR (6), RFAR RFAR RFAR RFAR RFAR RFAR] | 31 ppm | 31 ppm | >500 ppm | 8 ppm | 22.1% | 159 µg/mL | 72% | 15 µg/mL | 31 to 62 µg/mL | 12 µg/mL | 31 to 62 µg/mL | 25 µg/mL | 32 µg/mL | 114 µg/mL | 125 to 250 µg/mL | 35 µg/mL | 62 to 125 µg/mL | 176 µg/mL | –
7 | KAAKKAAKKAAKKAAKKAAKKAAKKAAK [KAAK (7), KAAK KAAK KAAK KAAK KAAK KAAK KAAK] | >500 ppm | 125 ppm | >500 ppm | 250 ppm | 90.0% | >500 µg/mL | −6% | >500 µg/mL | >500 µg/mL | 261 µg/mL | – | >250 µg/mL | >250 µg/mL | 262 µg/mL | >500 µg/mL | 41 µg/mL | 62 to 125 µg/mL | > 500 µg/mL | –
8 | KFAFKFAFKFAFKFAFKFAFKFAFKFAF [KFAF (7), KFAF KFAF KFAF KFAF KFAF KFAF KFAF] | 63 ppm | 63 ppm | >500 ppm | 125 ppm | 76.8% | >500 µg/mL | 4% | >500 µg/mL | >500 µg/mL | >1000 µg/mL | >1000 µg/mL | 250 µg/mL | >250 µg/mL | >500 µg/mL | >500 µg/mL | 67 µg/mL | 125 to 250 µg/mL | > 500 µg/mL | –
9 | KFFKKFFKKFFKKFFKKFFKKFFKKFFK [KFFK (7), KFFK KFFK KFFK KFFK KFFK KFFK KFFK] | 16 ppm | 8 ppm | 4 ppm | 63 ppm | −0.5% | 30 µg/mL | – | – | – | – | – | – | – | – | – | – | – | 12 µg/mL | % kill at 250 μg/ml ([4]; RBCs, 250 μg/ml): 100%; IC50 [6, 12]: 133 µg/mL; MIC [6, 12]: >250 µg/mL; IC50 ([7]; E. coli 2592, gram−): 63 µg/mL; MIC ([7]; E. coli 2592, gram−): >125 µg/mL; IC50 [8, 13]: 87 µg/mL; MIC [8, 13]: 125 µg/mL; IC50 ([9]; yeast C. albicans 10231): 183 µg/mL; MIC ([9]; yeast C. albicans 10231): 250 to 500 µg/mL; IC50 ([10]; fungus Cr. Neoformans 32045): 55 µg/mL; MIC ([10]; fungus Cr. Neoformans 32045): 62 to 125 µg/mL
10 | KFKKFKKFKKFKKFKKFK [KFK (6), KFK KFK KFK KFK KFK KFK] | >500 ppm | 125 ppm | >500 ppm | – | 77.8% | >500 µg/mL | −7% | 322 µg/mL | >500 µg/mL | 39 µg/mL | 62 to 125 µg/mL | 74 µg/mL | 125 µg/mL | 164 µg/mL | 250 to 500 µg/mL | 33 µg/mL | 40 to 62 µg/mL | > 500 µg/mL | –
11 | KFKKFKKFKKFKKFKKFKKFK [KFK (7), KFK KFK KFK KFK KFK KFK KFK] | >500 ppm | 125 ppm | >500 ppm | – | 80.9% | >500 µg/mL | −7% | 141 µg/mL | >500 µg/mL | 18 µg/mL | 31 to 62 µg/mL | 87 µg/mL | 125 µg/mL | 175 µg/mL | 250 to 500 µg/mL | 26 µg/mL | 40 to 62 µg/mL | > 500 µg/mL | –
